Experimental data taken from patent publication US9517240B2, “Methods and compositions for cancer prevention and treatment” (THE REGENTS OF THE UNIVERSITY OF CALIFORNIA, priority 2006, dated 2016).
Entries after “also recorded” stand apart in the source; their conditions may differ. Peptide text beside a SMILES is read from it. * marks the point of attachment. Cbz = O=C(OCc1ccccc1)*

Legend:
PR-A [1] = assay: Inhibition of proteasome degradation: PR-A and ERα levels in T47D cells with siLuc or siBRCA1 (western blotting); assay type: cell-based, human
Method: To further test whether BRCA1 specifically affects PR stability, adenoviral siRNA-mediated knockdown of BRCA1 was introduced to T47D cells. […] In the absence of a ligand, PR-A was very stable and no significant differences were detected between siLuc and siBRCA1 knockdown cells (FIG. 3A, lanes 5, 6). The amount of PR-B was analyzed by immunoprecipitation followed by western blot (FIG. 8). Depletion of BRCA1 by adenoviral siRNA led to PR-A and PR-B accumulation.
(§1) One day after plating, proliferating sub-confluent MECs or T47D cells were treated with 10 μM MG132 (BioMol Research Laboratories, Plymouth Meeting, Pa.) for 4 hr. Vehicle DMSO was added to the medium of untreated control cells. For the half-life study, 100 μg/ml of cyclohexamide (Sigma) was used and cells were harvested 0-6 hours after the addition of cyclohexamide. Cells were washed in PBS and protein lysates were prepared as described above.

PR-A [2] = assay: Inhibition of proteasome degradation: PR protein level in mouse MECs (western blotting); assay type: cell-based; conditions: 10 μM MG132 for 4 hr
Excerpt: (§2) MEC cultures from BRCA1^Δ11p53^Δ5&6 and p53^Δ5&6 mammary glands of two-month-old mice when MECs are histologically normal were created. The amount of PR protein, determined by western blotting, was 3-fold higher in BRCA1^Δ11p53^Δ5&6 than in p53^Δ5&6 MECs (FIG. 2D, lanes 1, 3). To further establish that PR protein stability is modulated by a proteasome pathway, MECs were exposing to MG132. PR-A was stabilized in p53^Δ5&6 but not in BRCA1^Δ11p53^Δ5&6 MECs (FIG. 2D, lanes 2, 4).
as §1

PR-A [3] = molecular target: T1, PR-A (Mus musculus, UniProt Q00175); assay: Determination of PR half-life in MECs with cyclohexamide and R5020; assay type: cell-based; conditions: 10 nM R5020, 100 μg/ml cyclohexamide
T1 construct: endogenous in cells; host or cells: primary mouse mammary epithelial cells (MECs) from p53 and BRCA1/p53 conditional knockout mammary glands
T1 sequence (Q00175 1-761 isoform Q00175-2): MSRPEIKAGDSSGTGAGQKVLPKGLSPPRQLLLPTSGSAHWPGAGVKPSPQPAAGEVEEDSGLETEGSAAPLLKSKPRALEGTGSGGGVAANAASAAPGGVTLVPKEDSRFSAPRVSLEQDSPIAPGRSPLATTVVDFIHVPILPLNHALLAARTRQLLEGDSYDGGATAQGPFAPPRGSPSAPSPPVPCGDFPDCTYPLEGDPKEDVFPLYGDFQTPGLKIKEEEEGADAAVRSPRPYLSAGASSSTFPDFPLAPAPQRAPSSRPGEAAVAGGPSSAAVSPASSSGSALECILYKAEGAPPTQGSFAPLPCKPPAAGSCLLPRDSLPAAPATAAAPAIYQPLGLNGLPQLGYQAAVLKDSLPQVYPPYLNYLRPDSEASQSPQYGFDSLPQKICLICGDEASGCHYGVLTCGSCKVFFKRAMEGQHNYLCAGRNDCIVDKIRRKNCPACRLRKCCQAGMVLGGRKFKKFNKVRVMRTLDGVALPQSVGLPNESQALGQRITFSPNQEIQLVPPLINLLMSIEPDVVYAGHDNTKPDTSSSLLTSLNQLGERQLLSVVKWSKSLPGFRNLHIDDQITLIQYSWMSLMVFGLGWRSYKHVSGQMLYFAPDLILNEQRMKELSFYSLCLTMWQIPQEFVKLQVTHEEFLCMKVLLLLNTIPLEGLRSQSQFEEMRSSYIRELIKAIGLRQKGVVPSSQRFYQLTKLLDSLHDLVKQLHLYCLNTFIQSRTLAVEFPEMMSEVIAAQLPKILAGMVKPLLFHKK
Excerpt: as §2, §1

[4] = system: BRCA1^Δ11p53^Δ5&6 conditional knockout mice (mammary tumors); assay: Pellet implantation and weekly monitoring for mammary tumor formation in BRCA1/p53 deficient mice; assay type: in vivo, mouse; conditions: for mammary tumorigenesis / tumor formation (in words): 35 mg/60 day constant release pellet
Method: (§3) As progesterone is a potent mitogen for BRCA1^Δ11p53^Δ5&6 MECs specifically it was tested whether blocking PR signaling by anti-progesterone will prevent or delay mammary carcinogenesis in BRCA1^Δ11p53^Δ5&6 conditional knockout mice. An anti-progesterone pellet containing 35 mg/60 days constant release mifepristone or placebo pellet was implanted into twelve 3- and two 4-month-old mice. Mice were monitored weekly for tumor formation. The median tumor latency of BRCA1^Δ11p53^Δ5&6 conditional knockout mice was 6.6 months (n=25) with complete penetrance (FIG. 4A). All control mice or placebo pellet treated mice developed palpable tumor by 8.7 or 5.2 months of ages (n=4), respectively. […] The effects of on ductal branching and alveolar expansion were determined using mammary gland whole mounts and histological sections. […] Only 33±7 ducts in an approximate area of 0.012 mm^2 were identified in-treated mice while 678±49 ducts were found in placebo pellet-treated mice. Dramatic inhibition of tumorigenesis was also seen with the implantation of 35 mg time release (60 day) pellets of CDB-2914. […] CDB-2914 shares structural similarity with mifepristone and binds competitively to PR with high affinity.
Nulliparous mature BRCA1^Δ11/p53^Δ5&6 female mice, age 14-20 weeks, were anesthetized and pellets containing either 35 mg/60-day constant release of mifepristone (M8046, Sigma, St. Louis, Mo.) or placebo pellets (Innovative Research of America, Sarasota, Fla.) were implanted in the lateral side of the neck. Mice were monitored weekly for mammary tumors.
This Example describes the early administration of Progesterone Receptor antagonists to mice with a BRCA1 mutation to prevent or delay the development of tumors.
An effective development window for prevention treatment has also been shown for RU-486 (data not shown). I would appear that the time window for treatment is important.

PR = molecular target: T2, PR (Homo sapiens, UniProt P06401); conditions: cited from earlier work
T2 sequence (P06401 1-933): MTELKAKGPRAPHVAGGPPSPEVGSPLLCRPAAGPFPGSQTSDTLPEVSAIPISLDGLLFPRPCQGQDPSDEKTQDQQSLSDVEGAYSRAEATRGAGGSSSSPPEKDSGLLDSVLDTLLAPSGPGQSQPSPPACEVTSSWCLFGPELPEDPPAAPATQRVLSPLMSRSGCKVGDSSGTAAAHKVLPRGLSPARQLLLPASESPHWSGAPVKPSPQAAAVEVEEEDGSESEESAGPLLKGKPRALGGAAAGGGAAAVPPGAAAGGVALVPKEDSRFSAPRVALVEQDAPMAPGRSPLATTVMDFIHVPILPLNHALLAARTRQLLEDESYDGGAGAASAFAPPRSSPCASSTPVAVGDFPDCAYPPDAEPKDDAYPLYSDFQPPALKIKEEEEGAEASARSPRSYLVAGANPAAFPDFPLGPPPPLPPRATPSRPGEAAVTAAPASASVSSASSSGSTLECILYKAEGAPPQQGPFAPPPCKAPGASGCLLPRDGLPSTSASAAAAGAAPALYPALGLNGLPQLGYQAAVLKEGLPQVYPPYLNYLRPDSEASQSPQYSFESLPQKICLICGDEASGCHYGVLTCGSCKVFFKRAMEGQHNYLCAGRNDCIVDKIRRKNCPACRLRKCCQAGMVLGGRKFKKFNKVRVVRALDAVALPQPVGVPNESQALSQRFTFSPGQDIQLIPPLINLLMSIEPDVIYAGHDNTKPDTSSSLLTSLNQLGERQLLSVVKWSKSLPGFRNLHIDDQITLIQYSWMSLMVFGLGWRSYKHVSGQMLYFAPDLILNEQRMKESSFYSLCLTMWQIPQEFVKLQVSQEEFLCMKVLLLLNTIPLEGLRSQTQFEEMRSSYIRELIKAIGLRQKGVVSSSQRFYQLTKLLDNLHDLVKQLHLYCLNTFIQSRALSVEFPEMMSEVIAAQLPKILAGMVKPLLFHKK

[5] = system: BRCA1^Δ11p53^Δ5&6 conditional knockout mice (mammary tumors); assay: Pellet implantation and weekly monitoring for mammary tumor formation in BRCA1/p53 deficient mice; assay type: in vivo, mouse; conditions: 5 mg/60 days constant release pellet
[6] = system: BRCA1^Δ11p53^Δ5&6 mammary glands; assay: Mammary gland whole mounts and histological sections: ductal branching and alveolar expansion; assay type: in vivo, mouse
Method: as §3
The mammary gland was removed and flattened on paraffin paper and fixed in Carnoy's fixative (60% of absolute ethanol, 30% CHCl3, 10% HOAc) for 3 hr. It was subsequently hydrated through a series of solutions with decreasing concentrations of ethanol, and stained in carmine solution (1 g carmine, 2.5 g aluminum potassium sulfate/500 ml of water) overnight. The gland was dehydrated through a series of solutions with increasing ethanol concentrations, 50-100%, washed in xylene twice, and mounted on a slide.

[7] = system: mammary epithelial cells (MECs); assay: Hormone-induced proliferation of mammary epithelial cells in ovariectomized mice (BrdU incorporation); assay type: in vivo, mouse; conditions: 1 mg progesterone daily for 3 days
Method: MEC proliferation peaks at the estrous phase when progesterone level is highly elevated. To assess the contribution of steroid hormones to MECs proliferation an ovariectomy was performed to deplete circulating estrogen and progesterone. Since PR is one of the downstream target genes of ER, progesterone activity was targeted. Two weeks after ovariectomy mice were treated with progesterone daily for 3 days followed by BrdU pulse labeling. In control vehicle treated mice, no BrdU-positive MECs were found in ovariectomized wt, and p53^Δ5&6 gland, but ducts containing one or two BrdU-positive cells were detected in BRCA1^Δ11p53^Δ5&6 mammary glands (FIG. 2A). Elevated proliferation seen under ovarian hormone depletion is related to the ligand-independent activation of PR in BRCA1-deficient cells. Importantly, a higher number of BrdU-positive MECs was found in BRCA1^Δ11p53^Δ5&6 mammary glands upon exposure to progesterone; ducts containing up to 6 BrdU-positive cells were identified (FIG. 2A).
Two weeks before steroid hormone treatment animals were bilaterally ovariectomized Mammary glands were stimulated to proliferate with daily subcutaneous injections of either 1 μg of estradiol (E2758, Sigma, St. Louis, Mo.) or 1 mg of progesterone (P8783, Sigma, St. Louis, Mo.) for 3 days. Untreated mice were used as controls.

[8] = system: BRCA1^Δ11p53^Δ5&6 mammary glands; assay: Immunostaining for cleaved caspase 3 in treated mammary glands; assay type: in vivo, mouse; conditions: 3 wk or 5 wk post pellet implantation

With CC(C)C[C@@H](C=O)NC(=O)[C@H](CC(C)C)NC(=O)[C@H](CC(C)C)NC(=O)OCc1ccccc1 [MG132] (Cbz-Leu-Leu-Leu-aldehyde) the “PR-A density (western blot)” value (PR-A [1]; control siLuc infected cells, with R5020, 1.0 without MG132) was 3.8, the “PR-A density (western blot)” value (PR-A [1]; siBRCA1 infected cells, with R5020, 3.2 without MG132) was 3.6 and the ERα stabilization (PR-A [1]; siLuc or siBRCA1 knockdown cells) was “stabilized to a similar extent”. For the same compound, the PR-A stabilization (PR-A [2]; BRCA1^Δ11p53^Δ5&6 MECs) was “not” and the PR-A stabilization (PR-A [2]; p53^Δ5&6 MECs) was “stabilized”.
In the case of CCC(=O)[C@@]1(C)CC[C@H]2[C@@H]3CCC4=CC(=O)CCC4=C3CC[C@@]21C [R5020], the “PR-A present at 6 hr post R5020 treatment” value (PR-A [3]; BRCA1^Δ11p53^Δ5&6 MECs) is reported as 90% and the “half-life of PR-A” value (PR-A [3]; p53^Δ5&6 MECs) is reported as 2.8 h.
For CC(=O)O[C@]1(C(C)=O)CC[C@H]2[C@@H]3CCC4=CC(=O)CCC4=C3[C@@H](c3ccc(N(C)C)cc3)C[C@@]21C [CDB-2914, 17α-acetoxy-11β-(4-N,N-dimethylaminophenyl)-19-norpregna-4,9-diene-3,20-dione], the “inhibition of tumors compared to control implants” value ([4]; 35 mg time release (60 day) pellet, BRCA1/p53 deficient mice, age 14 weeks, n=4) was 100%, the “mammary tumorigenesis / tumor formation (in words)” value ([4]; BRCA1/p53 deficient mice) was “has a preventative effect; also recorded: inhibits mammary tumorigenesis; also recorded: effective in delaying mammary tumors” and the “development of palpable tumors” value ([4]; two-month-release pellet implanted before 14 weeks of age, n=4) was “delayed development of palpable tumors”. The “development of palpable tumors” value ([4]; two-month-release pellet placed after 15 wks) was “failed to do so”, the other receptor properties (PR) was “anti-glucorcorticoid and anti-androgen properties” and the “binding to PR” value (PR; competitive) was “high affinity”. For the same compound, the “efficacy in tumor prevention (in words)” value [5] was “failed to show any efficacy” and the “ductal branching of the mammary gland” value ([6]; Brca1^f/fp53^f/fCrec mouse, 7.0-month-old, 35 mg/60 day pellet at 14-wk-old) was “inhibits ductal branching”.
In the case of CC(=O)[C@H]1CC[C@H]2[C@@H]3CCC4=CC(=O)CC[C@]4(C)[C@H]3CC[C@]12C [progesterone], the “BrdU-positive cells per duct” value ([7]; BRCA1^Δ11p53^Δ5&6 mammary glands) is reported as “up to 6” and the “BrdU-positive cells in the majority of MECs” value ([7]; wt or p53^Δ5&6 mammary gland) is reported as “did not contain BrdU-positive cells”.
For CC#C[C@]1(O)CC[C@H]2[C@@H]3CCC4=CC(=O)CCC4=C3[C@@H](c3ccc(N(C)C)cc3)C[C@@]21C [mifepristone], the “mammary tumorigenesis / tumor formation (in words)” value ([4]; BRCA1/p53 deficient mice) was “effective prevention of tumor formation; also recorded: prevents tumorigenesis; also recorded: inhibits mammary tumorigenesis”, the “palpable tumors at 12 months of age” value ([4]; 35 mg/60 days constant release pellet implanted at 3-4 months, n=14, BRCA1^Δ11p53^Δ5&6 mice) was “no palpable tumors were detected” and the “apoptotic cells (cleaved caspase 3)” value [8] was “few apoptotic cells”. The “side branches of mammary glands” value ([6]; five weeks of treatment, 35 mg/60-day pellet) was “substantial reduction” and the “ducts in an approximate area of 0.012 mm^2” value ([6]; five weeks of treatment, 35 mg/60-day pellet, placebo 678±49) was 33±7 ducts.
